Measurements taken from patent publication US20070014692A1, “Method and apparatus for measurement of binding between a protein and a nucleotide” (priority 1998, published 2007).

Target: T1, human estrogen receptor binding to the ERE (estrogen response element from Xenopus Vitellogenen A2 Gene) (Homo sapiens, UniProt P03372)
T1 construct: ubiquitin (gene fusion); host or cells: Saccharomyces cerevisiae strain AF103, YEpE10 plasmid, CUP1 promoter
Test: Evanescent fiber optic sensor with ERE fiber: binding of Cy5-tagged hER to estrogen response element in the presence of compound (S/C)

T1 sequence (P03372 whole entry, the tested form may be a part): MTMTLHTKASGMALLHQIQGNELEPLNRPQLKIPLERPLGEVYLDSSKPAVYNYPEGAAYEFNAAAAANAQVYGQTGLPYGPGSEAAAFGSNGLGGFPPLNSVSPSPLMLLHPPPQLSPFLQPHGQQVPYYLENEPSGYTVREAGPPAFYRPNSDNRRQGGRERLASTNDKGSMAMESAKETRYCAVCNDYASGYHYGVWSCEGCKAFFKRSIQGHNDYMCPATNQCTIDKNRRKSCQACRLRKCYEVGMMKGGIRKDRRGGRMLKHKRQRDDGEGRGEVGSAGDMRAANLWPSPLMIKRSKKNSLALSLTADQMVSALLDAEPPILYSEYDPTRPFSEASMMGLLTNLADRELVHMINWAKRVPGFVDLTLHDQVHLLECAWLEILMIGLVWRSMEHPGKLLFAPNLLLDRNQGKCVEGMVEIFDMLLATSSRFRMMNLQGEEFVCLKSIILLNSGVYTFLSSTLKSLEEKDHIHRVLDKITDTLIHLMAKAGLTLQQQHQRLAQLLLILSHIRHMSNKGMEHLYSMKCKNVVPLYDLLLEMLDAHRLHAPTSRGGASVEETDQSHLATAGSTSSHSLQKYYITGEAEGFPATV

Compound: C[C@H]1CCCC(=O)CCC/C=C/c2cc(O)cc(O)c2C(=O)O1 [zearalenone]
- effect on binding of receptor to the ERE fiber, in words (10^−6M compound): increase binding to the ERE more than do the weak biological estrogens
- Response of ERE fiber to hER and 10^−6M compound (control = 3.51) (S/C value, control = 3.51): 5.01
